This is an account of results in patent US12448394B2, “Heterocyclic pyrazole derivatives as type III receptor tyrosine kinase inhibitors” (DEVELOPMENT CENTER FOR BIOTECHNOLOGY, priority 2019, dated 2025).

Each structure is given as a SMILES string. Substitutions are numbered along the chain they refer to. Some results are limits rather than exact numbers.

Assay [1] relates to A375 melanoma cell with BRAF V600E mutation. The experiment in a line: A375 cell proliferation assay (counter screen). It counts as cell-based, human. To be noted: Homo sapiens, A-375, A375 cells, 72 hours treatment, CellTiter96, read-out: anti-proliferation activity A375 BRAF V600E, IC50 ranking. The procedure: (§1) Inhibitions of cell growths by compounds were measured using CellTiter™-96 assay. The cytotoxicities of compounds of the invention were evaluated in cell line panels with different signaling pathway dependencies, including MV4-11 human acute myeloid leukemia cell with FLT3-ITD mutation, Molm-14 human acute myeloid leukemia cell with FLT3-ITD mutation, THP-1 human acute monocytic leukemia cell with NRAS G12D mutation, A375 melanoma cell with BRAF V600E mutation, and HCC827 NSCLC cell with EGFR exon 19 deletion mutation.
A375 cells are melanoma cells encoding BRFA V600E mutation, which renders the cell growth dependent on BRAF signaling instead of class III RTKs signaling. A375 cells (catalog #CRL-1619) were obtained from the ATCC. Briefly, cells were cultured in DMEM containing 10% FBS and incubated at 37° C. in 5% CO2 atmosphere. Cells were allowed to expand until reaching saturation, at which point they were sub-cultured or harvested for assay use.
(§2) MV4-11, Molm-14, THP-1, A375, and HCC827 cells were seeded into 96-well plates at 6500, 25000, 5000, 2000 and 8000 cells/well, respectively, and incubated at 37° C., 5% CO2 overnight. Then, these seeded cells were treated with increasing concentrations of the test compounds and incubated for another 72 hours. At the end of the incubation, CellTiter96® AQueous One Solution Reagent (Promega, […]) was added and incubated for the additional 2˜4 hours. Cell viability was determined by measuring absorbance at 490 nm using EMax® microplate reader (Molecular Devices, San Jose, CA, USA).

For assay [2], the system named is HCC827 NSCLC cell with EGFR exon 19 deletion mutation. The assay is described as follows: HCC827 cell proliferation assay (counter screen). It counts as cell-based, human. To be noted: Homo sapiens, HCC827 cells, 72 hours treatment, CellTiter96, read-out: anti-proliferation activity HCC827 EGFR Exon19 del, IC50 ranking. The procedure:
as §1
HCC827 cells are non-small cell lung carcinoma (NSCLC) cells encoding EGFR exon 19 deletion mutation, which renders the cell growth dependent on EGFR signaling instead of class III RTKs signaling. HCC827 cells (catalog #CRL-2868) were obtained from the ATCC. Briefly, cells were cultured in RPMI1640 medium supplemented with 10% FBS and incubated at 37° C. in 5% CO2 atmosphere. Cells were allowed to expand until reaching saturation, at which point they were sub-cultured or harvested for assay use.
as §2
(In general: The purpose of a counterscreen is to sort out artefacts and off-target activity.)

For assay [3], the system named is MV4-11 human acute myeloid leukemia cell with FLT3-ITD mutation. The assay is described as follows: MV4-11 cell proliferation assay (CellTiter 96). To be noted: Homo sapiens, MV4-11, 72 h, MV4-11 cells, 72 hours treatment, CellTiter96; read-out: anti-proliferation activity MV4-11 (FLT3-ITD), IC50 ranking. It counts as cell-based. The procedure: as §1
The compounds disclosed herein were tested in MV4-11 cell proliferation assay to determine their cellular potencies against FLT3 signal pathway dependent cell growths. MV4-11 cells are human acute myeloid leukemia (AML) cells harboring ligand-independent FLT3-ITD activating mutation, which renders the abnormal proliferation of AML cells FLT3 signaling pathway dependent. Inhibition of FLT3 kinase activity will result in reduced growths and/or cell deaths. MV4-11 cells (catalog #CRL-9591) were obtained from the American Type Culture Collection (ATCC, Manassas, VA). Briefly, cells were grown in IMDM medium supplemented with 10% heat inactivated fetal bovine serum and incubated at 37° C. in 5% CO2 atmosphere. Cells were allowed to expand until reaching saturation, at which point they were sub-cultured or harvested for assay use.
as §2

In assay [4] the test system is Molm-14 human acute myeloid leukemia cell with FLT3-ITD mutation. The assay is described as follows: Molm-14 cell proliferation assay (CellTiter 96). It counts as cell-based. To be noted: Homo sapiens; Molm-14 cells, 72 hours treatment, CellTiter96; read-out: anti-proliferation activity Molm-14 (FLT3-ITD), IC50 ranking. The method, then: as §1
The compounds disclosed herein were tested in Molm-14 cell proliferation assay to determine their cellular potencies against FLT3 signal pathway dependent cell growths. Molm-14 cells are human acute myeloid leukemia (AML) cells harboring ligand-independent FLT3-ITD activating mutation, which renders the abnormal proliferation of the AML cells FLT3 signaling pathway dependent. Inhibition of FLT3 kinase activity will result in reduced growths and/or cell deaths. […] Briefly, cells were grown in RPMI 1640 medium supplemented with 10% heat inactivated fetal bovine serum and incubated at 37° C. in 5% CO2 atmosphere. Cells were allowed to expand until reaching saturation, at which point they were sub-cultured or harvested for assay use.
as §2

For assay [5], the system named is THP-1 human acute monocytic leukemia cell with NRAS G12D mutation. The assay is described as follows: THP-1 cell proliferation assay (counter screen). It counts as cell-based. To be noted: Homo sapiens, THP-1 cells, 72 hours treatment, CellTiter96, read-out: anti-proliferation activity THP-1 NRAS N12D, IC50 ranking. The procedure:
as §1
THP-1 cells are human acute monocytic leukemia cells with NRAS G12D mutation, which renders the cell growth independent of class III RTKs signaling. THP-1 cells (catalog #TIB-202) were obtained from the ATCC. Briefly, cells were grown in RPMI 1640 medium supplemented with 10% heat inactivated fetal bovine serum and 0.05 mM 2-mercaptoethanol and incubated at 37° C. in 5% CO2 atmosphere. Cells were allowed to expand until reaching saturation, at which point they were sub-cultured or harvested for assay use.
as §2

A further assay deals with T1, FLT3 kinase (Homo sapiens, UniProt P36888).
T1 construct: purchased SignalChem
T1 sequence (P36888 27-993): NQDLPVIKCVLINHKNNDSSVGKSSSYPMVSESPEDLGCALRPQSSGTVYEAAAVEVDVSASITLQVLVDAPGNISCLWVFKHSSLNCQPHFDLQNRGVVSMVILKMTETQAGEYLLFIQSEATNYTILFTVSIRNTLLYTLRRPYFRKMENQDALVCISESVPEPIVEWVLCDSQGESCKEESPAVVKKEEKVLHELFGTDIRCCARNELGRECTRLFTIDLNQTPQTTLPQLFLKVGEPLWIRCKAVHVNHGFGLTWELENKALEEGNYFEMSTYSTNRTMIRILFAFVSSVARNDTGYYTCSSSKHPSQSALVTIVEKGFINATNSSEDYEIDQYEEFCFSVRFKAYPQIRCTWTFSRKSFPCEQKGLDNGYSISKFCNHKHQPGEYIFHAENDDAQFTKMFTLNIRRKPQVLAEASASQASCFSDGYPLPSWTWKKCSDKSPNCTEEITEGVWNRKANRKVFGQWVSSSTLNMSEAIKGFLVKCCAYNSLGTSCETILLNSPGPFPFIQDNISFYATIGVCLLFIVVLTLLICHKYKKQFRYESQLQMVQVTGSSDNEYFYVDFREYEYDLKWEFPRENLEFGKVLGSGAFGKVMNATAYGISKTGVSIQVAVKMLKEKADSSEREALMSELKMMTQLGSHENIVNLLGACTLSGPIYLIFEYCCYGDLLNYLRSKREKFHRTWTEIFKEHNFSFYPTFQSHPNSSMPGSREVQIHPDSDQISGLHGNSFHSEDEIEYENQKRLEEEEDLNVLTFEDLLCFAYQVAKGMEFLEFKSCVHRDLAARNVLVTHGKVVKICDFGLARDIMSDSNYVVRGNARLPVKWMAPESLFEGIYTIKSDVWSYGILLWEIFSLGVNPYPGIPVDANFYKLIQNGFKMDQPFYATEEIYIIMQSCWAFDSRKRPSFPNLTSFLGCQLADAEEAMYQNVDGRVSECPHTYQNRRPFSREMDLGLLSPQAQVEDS
The experiment in a line: FLT3 kinase assay (AlphaScreen). It counts as biochemical. To be noted: mean; read-out: Biochemical activity (Mean IC50, nM) FLT3. The method, then: (§3) Inhibition of FLT3 kinase activity by a test compound disclosed herein was estimated by AlphaScreen (PerkinElmer, Akron, Ohio, USA). Standard assay conditions were 1.5 ng of recombinant FLT3 kinase (SignalChem, Richmond, BC, Canada) with 6 ng Biotin-conjugated Poly-(Glu 4: Tyr 1) (Cisbio, Bedford, MA, USA) in the assay buffer (10 μM ATP, 10 mM MOPs, pH7.0, 0.21 mM EDTA, 0.5% glycerol, 1 mg/mL BSA, 0.01% 2-mercaptoethanol, 0.001% Brij35, 10 mM MgCl2) in a final volume of 25 μL. Reactions were incubated at 30° C. for 30 min and stopped by adding 5 μL of 50 mM EDTA. Analysis of resulting product using an AlphaScreen kit and counted with Enspire Alpha (PerkinElmer, Waltham, MA, USA). […] The IC50 values of inhibitors were determined after carrying out assays with each compound at serially diluted concentrations in duplication. The results were analyzed using linear regression software (GraphPad Prism 5; GraphPad Software Inc.)
In general terms: Bead proximity is the source of the signal in Alpha formats.

The next assay has as its target T2, FLT3-D835Y mutant kinase (Homo sapiens, UniProt P36888, D835Y).
T2 construct: purchased SignalChem
T2 sequence (P36888 27-993 D835Y): T1 sequence (P36888 27-993) with D809Y
The assay is described as follows: FLT3-D835Y mutant kinase assay (AlphaScreen). It counts as biochemical. To be noted: mean; read-out: Biochemical activity (Mean IC50, nM) FLT3-D835Y. The procedure:
as §3, with “FLT3-D835Y mutant” for “FLT3”, “(PerkinElmer).” for “(PerkinElmer, Akron, Ohio, USA).”, “1” for “1.5”, “(SignalChem)” for “(SignalChem, Richmond, BC, Canada)”, “(Cisbio)” for “(Cisbio, Bedford, MA, USA)”, “(PerkinElmer).” for “(PerkinElmer, Waltham, MA, USA).”

Take `Cn1ncc2ccc(-c3n[nH]c4c3Cc3sc(-c5ccc(CN6CCOCC6)cn5)cc3-4)cc21` [Compound 55, 4-((6-(3-(1-methyl-1H-indazol-6-yl)-1,4-dihydro-thieno[2′,3′:4,5]cyclopenta [1,2-c]pyrazol-6-yl)pyridin-3-yl)methyl) morpholine]: the IC50 in assay [1] was more than 10000 nM; in assay [2], more than 10000 nM; in assay [3], less than 30 nM; in assay [4] it was less than 30 nM; in assay [5], more than 10000 nM.

In the case of `COc1ccc(-c2n[nH]c3c2Cc2sc(-c4ccc(N)nc4)cc2-3)cc1` [Example H, 5-(3-(4-methoxyphenyl)-1,4-dihydrothieno[2′,3′:4,5]cyclopenta[1,2-c]pyrazol-6-yl)pyridin-2-amine, reference compound], the IC50 was determined as 8 nM on FLT3 kinase and 15 nM on FLT3-D835Y mutant kinase.
